Experimental data as given in US20100267561A1, “HERBICIDAL PYRIDAZINONE DERIVATIVES” (priority 2007, published 2010).

Tests used:
Type in all cases: in vivo
[1] = test system: barnyardgrass (Echinochloa crus-galli); test: Test A pre-/postemergence plant response
Procedure, shortened: (§1)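 Both pre- and postemergence treatment given concurrently; postemergence seedlings measured 2–10 cm at the one- to two-leaf stage. Visual injury, 0–100 scale versus untreated, at ~10 days.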

[2] = test system: blackgrass (Alopecurus myosuroides); test: Test A pre-/postemergence plant response
Procedure, shortened: as §1

[3] = test system: canarygrass (Phalaris minor); test: Test A pre-/postemergence plant response
Procedure, shortened: as §1

corn (Zea mays) = test: Test A pre-/postemergence plant response
Procedure, shortened: as §1

[4] = test system: giant foxtail (Setaria faberi); test: Test A pre-/postemergence plant response
Procedure, shortened: as §1

[5] = test system: large crabgrass (Digitaria sanguinalis); test: Test A pre-/postemergence plant response
Procedure, shortened: as §1

[6] = test system: pigweed (Amaranthus retroflexus); test: Test A pre-/postemergence plant response
Procedure, shortened: as §1

[7] = test system: wheat (Triticum aestivum); test: Test A pre-/postemergence plant response
Procedure, shortened: as §1

[8] = test system: barnyardgrass (Echinochloa crus-galli); test: Test B flooded paddy test plant response
Procedure, shortened: (§2)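 Compounds were added directly to paddy water over 2-leaf-stage plants in pots flooded 3 cm above soil, water depth maintained. Visual injury scored against controls after 13 to 15 days in greenhouse, 0 (none) to 100 (complete control); dash indicates no result.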

[9] = test system: ducksalad (Heteranthera limosa); test: Test B flooded paddy test plant response
Procedure, shortened: as §2

rice (Oryza sativa) = test: Test B flooded paddy test plant response
Procedure, shortened: as §2

[10] = test system: umbrella sedge (Cyperus difformis); test: Test B flooded paddy test plant response
Procedure, shortened: as §2

[11] = Postemergence, 31 g ai/ha, 0 to 100 scale (0 no effect, 100 complete control)
[12] = Postemergence, 125 g ai/ha, 0 to 100 scale, 0 no effect, 100 complete control
[13] = Preemergence, 31 g ai/ha, 0 to 100 scale, 0 is no effect, 100 is complete control
[14] = Preemergence, 125 g ai/ha, 0 to 100 scale (0 no effect, 100 complete control)
[15] = Flood (flooded paddy test), 250 g ai/ha, scale 0 to 100, 0 no effect, 100 complete control
[16] = Flood, 62 g ai/ha, scale 0 to 100

## Cc1cn(-c2ccc(Cl)cn2)nc1-c1c(O)cnn(C)c1=O [Compound 84]
[1]; [11]
  Plant response rating, Barnyardgrass: 0
[1]; [12]
  Plant response rating, Barnyardgrass: 0
[1]; [13]
  Plant response rating, Barnyardgrass: 0
[1]; [14]
  Plant response rating, Barnyardgrass: 0
[2]; [11]
  Plant response rating, Blackgrass: 0
[2]; [12]
  Plant response rating, Blackgrass: 0
[2]; [13]
  Plant response rating, Blackgrass: 0
[2]; [14]
  Plant response rating, Blackgrass: 0
[3]; [11]
  Plant response rating, Canarygrass: 0
[3]; [12]
  Plant response rating, Canarygrass: 0
[3]; [13]
  Plant response rating, Canarygrass: 0
[3]; [14]
  Plant response rating, Canarygrass: 0
Corn (Zea mays); [11]
  Plant response rating, Corn: 0
Corn (Zea mays); [12]
  Plant response rating, Corn: 0
Corn (Zea mays); [13]
  Plant response rating, Corn: 0
Corn (Zea mays); [14]
  Plant response rating, Corn: 0
[4]; [11]
  Plant response rating, Foxtail, Giant: 0
[4]; [12]
  Plant response rating, Foxtail, Giant: 10
[4]; [13]
  Plant response rating, Foxtail, Giant: 0
[4]; [14]
  Plant response rating, Foxtail, Giant: 0
[5]; [11]
  Plant response rating, Crabgrass, Large: 0
[5]; [12]
  Plant response rating, Crabgrass, Large: 10
[5]; [13]
  Plant response rating, Crabgrass, Large: 0
[5]; [14]
  Plant response rating, Crabgrass, Large: 0
[6]; [11]
  Plant response rating, Pigweed: 0
[6]; [12]
  Plant response rating, Pigweed: 0
[6]; [13]
  Plant response rating, Pigweed: 0
[6]; [14]
  Plant response rating, Pigweed: 0
[7]; [11]
  Plant response rating, Wheat: 0
[7]; [12]
  Plant response rating, Wheat: 0
[7]; [13]
  Plant response rating, Wheat: 0
[7]; [14]
  Plant response rating, Wheat: 0
[8]; [15]
  Plant response rating, Barnyardgrass: 0
[8]; [16]
  Plant response rating, Barnyardgrass: 0
[9]; [15]
  Plant response rating, Ducksalad: 0
[9]; [16]
  Plant response rating, Ducksalad: 0
Rice (Oryza sativa); [15]
  Plant response rating, Rice: 0
Rice (Oryza sativa); [16]
  Plant response rating, Rice: 0
[10]; [15]
  Plant response rating, Sedge, Umbrella: 0
[10]; [16]
  Plant response rating, Sedge, Umbrella: 0
